Data published in article PMC6686011, “Ruthenium(II) complexes with 6-methyl-2-thiouracil selectively reduce cell proliferation, cause DNA double-strand break and trigger caspase-mediated apoptosis through JNK/p38 pathways in human acute promyelocytic leukemia cells” (Scientific Reports, 2019).

Experiments:
[1] = test system: any cells; test: Cytotoxicity, alamar blue assay, whole cell panel; assay type: cell-based; details: 72 h, not cytotoxic at concentrations tested
Experimental: (§1) Cytotoxicity was measured using alamar blue assay and was performed following the procedure that was described previously[21],[22]. Briefly, cells were inserted in 96-well plates and incubated overnight. Then, the complexes were dissolved in dimethyl sulfoxide (DMSO, LGC Biotechnology, São Paulo, SP, Brazil) and added to each well and incubated for 72 h. […] Before the end of treatment (4 h for cell lines and 24 h for PBMC), 20 μL of a stock solution (0.312 mg/mL) of alamar blue (resazurin, Sigma-Aldrich Co.) were added to each well. Absorbance at 570 nm and 600 nm was measured using SpectraMax 190 Microplate Reader (Molecular Devices, Sunnyvale, CA, USA).

[2] = test system: B16-F10 (mouse melanoma); test: Cytotoxicity, alamar blue assay; assay type: cell-based; details: for Selectivity index, B16-F10 versus MRC-5: SI = IC50[MRC-5]/IC50[B16-F10]; for Selectivity index, B16-F10 versus PBMC: SI = IC50[PBMC]/IC50[B16-F10]
Experimental: as §1

[3] = test system: BAD KO SV40 MEF (immortalized mouse embryonic fibroblast with the BAD gene knocked out); test: Cytotoxicity, alamar blue assay; assay type: cell-based; details: 72 h, read-out: IC50, BAD KO SV40 MEF cell line
Experimental: as §1

[4] = test system: HCT116 (human colon carcinoma); test: Cytotoxicity, alamar blue assay; assay type: cell-based; details: for Selectivity index, HCT116 versus MRC-5: SI = IC50[MRC-5]/IC50[HCT116]; for Selectivity index, HCT116 versus PBMC: SI = IC50[PBMC]/IC50[HCT116]
Experimental: as §1

[5] = test system: HL-60 (human acute promyelocytic leukemia); test: Cytotoxicity, alamar blue assay; assay type: cell-based; details: for Selectivity index, HL-60 versus MRC-5: SI = IC50[MRC-5]/IC50[HL-60]; for Selectivity index, HL-60 versus PBMC: SI = IC50[PBMC]/IC50[HL-60]; for IC50: alamar blue, 72 h, read-out: IC50 and 95% CI, HL-60
Experimental: as §1

[6] = test system: HSC-3 (human oral squamous cell carcinoma); test: Cytotoxicity, alamar blue assay; assay type: cell-based; details: for Selectivity index, HSC-3 versus MRC-5: SI = IC50[MRC-5]/IC50[HSC-3]; for Selectivity index, HSC-3 versus PBMC: SI = IC50[PBMC]/IC50[HSC-3]; for IC50: alamar blue, 72 h, read-out: IC50 and 95% CI, HSC-3
Experimental: as §1

[7] = test system: HepG2 (human hepatocellular carcinoma); test: Cytotoxicity, alamar blue assay; assay type: cell-based; details: for Selectivity index, HepG2 versus MRC-5: SI = IC50[MRC-5]/IC50[HepG2]; for Selectivity index, HepG2 versus PBMC: SI = IC50[PBMC]/IC50[HepG2]
Experimental: as §1

[8] = test system: K-562 (human chronic myelogenous leukemia); test: Cytotoxicity, alamar blue assay; assay type: cell-based; details: for Selectivity index, K-562 versus MRC-5: SI = IC50[MRC-5]/IC50[K-562]; for Selectivity index, K-562 versus PBMC: SI = IC50[PBMC]/IC50[K-562]
Experimental: as §1

[9] = test system: MRC-5 (human lung fibroblast); test: Cytotoxicity, alamar blue assay; assay type: cell-based; details: non-cancer cells, 72 h, read-out: IC50 and 95% CI, MRC-5
Experimental: as §1

[10] = test system: SCC-4 (human oral squamous cell carcinoma); test: Cytotoxicity, alamar blue assay; assay type: cell-based; details: for Selectivity index, SCC-4 versus MRC-5: SI = IC50[MRC-5]/IC50[SCC-4]; for Selectivity index, SCC-4 versus PBMC: SI = IC50[PBMC]/IC50[SCC-4]
Experimental: as §1

[11] = test system: WT SV40 MEF (wild-type immortalized mouse embryonic fibroblasts); test: Cytotoxicity, alamar blue assay; assay type: cell-based; details: 72 h, read-out: IC50, WT SV40 MEF cell line
Experimental: as §1

[12] = test system: PBMC (human peripheral blood mononuclear cells); test: Cytotoxicity, alamar blue assay; assay type: cell-based; details: non-cancer cells, 72 h, read-out: IC50 and 95% CI, PBMC
Text: HL-60 (human acute promyelocytic leukemia), K-562 (human chronic myelogenous leukemia), HCT116 (human colon carcinoma), HepG2 (human hepatocellular carcinoma), HSC-3 (human oral squamous cell carcinoma), SCC-9 (human oral squamous cell carcinoma), B16-F10 (mouse melanoma), MRC-5 (human lung fibroblast), WT SV40 MEF (wild-type immortalized mouse embryonic fibroblast) and BAD KO SV40 MEF (BAD gene knockout immortalized mouse embryonic fibroblast) cell lines were obtained from American Type Culture Collection (ATCC, Manassas, VA, USA). Human peripheral blood mononuclear cells (PBMC) were isolated using standard Ficoll density gradient from heparinized blood collected from 20- to 35-year-old, non-smoker healthy donors with informed consent (number 031019/2013) approved by Human Ethics Committee of Gonçalo Moniz Institute from Oswaldo Cruz Foundation (IGM-FIOCRUZ/BA), and all experiments were performed in accordance with relevant guidelines and regulations. Cells were cultured as recommended by ATCC guidelines and a mycoplasma stain kit (Sigma-Aldrich) was used to validate the use of cells free from contamination. Cell viability in all experiments was examined using the trypan blue exclusion (TBE) assay. Over 90% of the cells were viable at the beginning of the culture.
as §1

[13] = test system: HL-60 cells; test: Trypan blue exclusion assay; assay type: cell-based, human
Experimental: The number of viable cells and non-viable (take up trypan blue) were counted by TBE method. Shortly, 90 μL was removed from the cell suspension and 10 μL of trypan blue (0.4%) was added. Cell counting was performed using a light microscope with a neubauer chamber.

[14] = test system: HL-60 cells; test: Apoptosis quantification, annexin V-FITC/PI flow cytometry; assay type: cell-based, human
Experimental: Shortly, cells were washed twice with saline solution and resuspended in 100 μL of binding buffer plus 5 μL of propidium iodide (PI) and 5 μL of FITC Annexin V. Then, cells were gently mixed by vortexing and incubated for 15 min at room temperature in the dark. Finally, 400 μL of binding buffer was added to each tube, and the cell fluorescence was determined by flow cytometry, as described above. Percentage of viable, early apoptotic, late apoptotic and necrotic cells were measured. […] Cells were then analyzed by FITC Annexin V Apoptosis Detection assay as described above.

[15] = test system: HL-60 cell xenografts; test: Human myeloid leukemia xenograft model; assay type: in vivo, C.B-17 SCID mice
Experimental: Fifty six specific-pathogen-free (SPF) C.B-17 severe combined immunodeficient (SCID) mice (females, 23–26 g) were used in this study. The animals were obtained and maintained at animal facilities from Gonçalo Moniz Institute-FIOCRUZ (Salvador, Bahia, Brazil), and housed in cages with free access to food and water, and kept under a 12:12 h light-dark cycle (lights on at 6:00 a.m.). The animals were treated according to ethical principles for animal experimentation of SBCAL (Brazilian Association of Laboratory Animal Science), Brazil. Experimental protocol have been approved (number 06/2015) by Animal Ethics Committee of Gonçalo Moniz Institute-FIOCRUZ (Salvador, Bahia, Brazil).
Human myeloid leukemia xenograft model was carry out as described previously by Rodrigues et al.[26] with minor modifications. HL-60 cells (2.5 × 10^7 cells/500 µL) were implanted subcutaneously into the left front armpit of the mice. […] When the tumors reached 100 to 200 mm^3 (22 days after HL-60 cells injection), the animals were treated through the intraperitoneal route (200 µL per animal) once a day for 13 consecutive days. One day after the end of the treatment, the animals were anesthetized, and peripheral blood samples were collected from brachial artery. Animals were euthanized by anesthetic overdose, and tumors were excised and weighed.

[16] = Toxicological evaluation in xenograft mice; assay type: in vivo, C.B-17 SCID mice; details: complex 1 20 and 40 mg/kg
Experimental: To assess toxicological aspects, mice were weighed at the beginning and at the end of the experiment as described previously by Rodrigues et al.[26]. […] Hematological analysis was performed using the Advia 60 hematology system (Bayer, Leverkusen, Germany). Livers, kidneys, lungs and hearts were removed, weighed and examined for any signs of macroscopic lesions, color changes and/or hemorrhages. After macroscopic examination, tumors, livers, kidneys, lungs and hearts were fixed in 4% formalin buffer and embedded in paraffin. Tissue sections were stained with hematoxylin/eosin staining, and a pathologist performed the histological analyses under optical microscopy.

[17] = test system: HL-60 cells; test: Intracellular ruthenium quantification by energy dispersive X-ray spectrometer; assay type: cell-based, human; details: HL-60, 3 h, 500 µM
Experimental: Intracellular ruthenium quantification in HL-60 cells was evaluated by energy dispersive X-ray spectrometer (EDS)[23]. Cells were fixed in sodium cacodylate buffer (0.1 M sodium cacodylate solution pH 7.4, plus 2.5% glutaraldehyde and 2% paraformaldehyde) for at least 2 h. After washing, cells were dehydrated in an acetone series and embedded in polybed epoxy resin (Polysciences; Warrington, PA). Ultrathin sections were examined under a JEM-1230 transmission electron microscope (TEM) integrated with an EDS microanalytics system (JEOL USA, Inc., Peabody, MA, USA).

[18] = 20 mg/kg intraperitoneal once a day for 13 consecutive days
[19] = 40 mg/kg intraperitoneal once a day for 13 consecutive days

Row | Compound | Selectivity index, B16-F10 versus MRC-5 [2] | Selectivity index, B16-F10 versus PBMC [2] | IC50 [3] [µM] | Selectivity index, HCT116 versus MRC-5 [4] | Selectivity index, HCT116 versus PBMC [4] | Selectivity index, HL-60 versus MRC-5 [5] | Selectivity index, HL-60 versus PBMC [5] | IC50 [5] [µM] | Selectivity index, HSC-3 versus MRC-5 [6] | Selectivity index, HSC-3 versus PBMC [6] | IC50 [6] [µM] | Selectivity index, HepG2 versus MRC-5 [7] | Selectivity index, HepG2 versus PBMC [7] | Selectivity index, K-562 versus MRC-5 [8] | Selectivity index, K-562 versus PBMC [8] | IC50 [9] [µM] | Selectivity index, SCC-4 versus MRC-5 [10] | Selectivity index, SCC-4 versus PBMC [10] | IC50 [11] [µM] | IC50 [12] [µM] | further results
1 | Cc1cc(=O)[nH]c(=S)[nH]1 [6-methyl-2-thiouracil] |  |  |  |  |  |  |  |  |  |  |  |  |  |  |  |  |  |  |  |  | IC50 [1]: > 176 µM
2 | Cc1cc(=O)[nH]c([S][Ru]([S]c2nc(C)cc(=O)[nH]2)([PH](c2ccccc2)(c2ccccc2)c2ccccc2)[PH](c2ccccc2)(c2ccccc2)c2ccccc2)n1 [Complex 1, cis-[Ru(6m2tu)2(PPh3)2]] | 6.9 | 3.1 | 3.1 | 4.1 | 1.9 | 571 | 257 | 0.01 | 1.3 | 0.6 | 4.37 | 6 | 2.7 | 28.6 | 12.9 | 5.71 | 3.5 | 1.6 | 3.5 | 2.57 | Reduction of the number of viable cells ([13]; HL-60, 12 h, 1 μM): no statistically significant reduction; Reduction of the number of viable cells ([13]; HL-60, 12 h, 2 μM): 36.9%; Reduction of the number of viable cells ([13]; HL-60, 24 h, 1 μM): 65.3%; Reduction of the number of viable cells ([13]; HL-60, 24 h, 2 μM): 77.1%; Apoptosis (annexin V-FITC positive cells) ([14]; HL-60, 12 h, 1 μM): no statistically significant apoptosis induction; Apoptosis (annexin V-FITC positive cells) ([14]; HL-60, 12 h, 2 μM): 37.2%; Apoptosis (annexin V-FITC positive cells) ([14]; HL-60, 24 h, 1 μM): 38.5%; Apoptosis (annexin V-FITC positive cells) ([14]; HL-60, 24 h, 2 μM): 66.4%; Mean of tumor mass weight [15, 18]: 0.4 ± 0.1 g; Tumor mass inhibition rate [15, 18]: 73.1%; Mean of tumor mass weight [15, 19]: 0.3 ± 0.1 g; Tumor mass inhibition rate [15, 19]: 79.9%; Tumor histomorphological analysis ([15]; 20 and 40 mg, hematoxylin/eosin): areas with nodular/encapsulated growth and extracellular matrix formation were more evident; Liver histopathology [16]: focal areas of steatosis were observed; Kidney histopathology ([16]; doxorubicin 0.1 mg/kg): Coagulation necrosis was observed in renal tubules; Lung histopathology ([16]; doxorubicin 0.1 mg/kg): inflammation was more evident
3 | N.N.[Cl][Pt][Cl] [cisplatin] |  |  |  |  |  |  |  |  |  |  |  |  |  |  |  |  |  |  |  |  | Intracellular platinum [17]: able to quantify platinum
4 | O=C1[O][Pt]2([NH][C@@H]3CCCC[C@H]3[NH]2)[O]C1=O [oxaliplatin, reference compound] |  |  |  |  |  |  |  |  |  |  |  |  |  |  |  | 1.54 |  |  |  | 14.9 | IC50 ([2]; alamar blue, 72 h, read-out: IC50 and 95% CI, B16-F10): 0.03 µM; Intracellular platinum [17]: able to quantify platinum
5 | [Ru(6m2tu)2(dppb)] [Complex 2] | 2.9 | 1.2 | 4.2 | 2.6 | 1.1 | 23.5 | 9.6 | 0.13 | 1.5 | 0.6 | 2.04 | 3.7 | 1.5 | 9 | 3.7 | 3.06 | 2.5 | 1 | 3.9 | 1.25 | Reduction of the number of viable cells ([13]; HL-60, 12 h, 1 μM): no statistically significant reduction; Reduction of the number of viable cells ([13]; HL-60, 12 h, 2 μM): 44.1%; Reduction of the number of viable cells ([13]; HL-60, 24 h, 1 μM): 36.1%; Reduction of the number of viable cells ([13]; HL-60, 24 h, 2 μM): 60.1%; Apoptosis (annexin V-FITC positive cells) ([14]; HL-60, 12 h, 1 μM): no statistically significant apoptosis induction; Apoptosis (annexin V-FITC positive cells) ([14]; HL-60, 12 h, 2 μM): 31.1%; Apoptosis (annexin V-FITC positive cells) ([14]; HL-60, 24 h, 1 μM): 32.1%; Apoptosis (annexin V-FITC positive cells) ([14]; HL-60, 24 h, 2 μM): 55.9%
